Source: US9040529B2 (Vichem Chemie Kutató Kft., priority 2009, dated 2015)
Counter-ions that a name gives are not always drawn.

target: T1, human CDK9/CyclinT kinase complex (Homo sapiens, UniProt P50750); assay: In vitro CDK9/CyclinT assay (IMAP fluorescence polarization kinase assay); assay type: biochemical; settings: not given
T1 construct: purchased Proqinase 0371-0345-1
Protocol: In Vitro CDK9/CyclinT Assay
The activity of the compounds described in the present invention can be determined by the following kinase assay, which measures the phosphorylation of a fluorescently-labeled peptide by human CDK9/CyclinT kinase complex by fluorescent polarization using a commercially available IMAP Screening Express Assay Kit (Molecular devices).
CDK9 kinase assays were performed in low protein binding 384-well plates (Corning 3676). Test compounds were diluted in 100% DMSO to 5 mM stock concentration, then further dilutions were made in H2O or 100% DMSO to desirable concentrations.
Each reaction consisted of 5 nM enzyme: CDK9/CyclinT (Proqinase cat#0371-0345-1), 400 nM TAMRA-Rbtide (synthetic 15-mer peptide derived from human retinoblastoma tumor suppressor protein labelled with TAMRA dye, Genecust Europe), 12 μM ATP (=Kmapp, Sigma-Aldrich) and kinase buffer: 20 mM MOPS pH 7 (Sigma-Aldrich), 1 mM DTT (Sigma-Aldrich), 10 mM MgCl2 (Sigma-Aldrich), 0.01% Tween 20 (Sigma-Aldrich).
For each reaction, 4 or 6 μl containing TAMRA-Rbtide, ATP and kianse buffer were combined with 2 μl diluted compound in H2O or 0.028 μl compound in 100% DMSO. The kinase reaction was started by the addition of 2 μl diluted enzyme. The reaction was allowed to run for 1 hours at room temperature. The reaction was stopped by adding 15 μl IMAP beads (1:400 beads in progressive (100% buffer A) 1× buffer). After an additional 1 hours, fluorescent polarization (Ex: 550-10 nm, Em: 590-10 nm, Dich: 561 nm) was measured using an Analyst GT (Molecular devices).

T1 sequence (P50750 whole entry): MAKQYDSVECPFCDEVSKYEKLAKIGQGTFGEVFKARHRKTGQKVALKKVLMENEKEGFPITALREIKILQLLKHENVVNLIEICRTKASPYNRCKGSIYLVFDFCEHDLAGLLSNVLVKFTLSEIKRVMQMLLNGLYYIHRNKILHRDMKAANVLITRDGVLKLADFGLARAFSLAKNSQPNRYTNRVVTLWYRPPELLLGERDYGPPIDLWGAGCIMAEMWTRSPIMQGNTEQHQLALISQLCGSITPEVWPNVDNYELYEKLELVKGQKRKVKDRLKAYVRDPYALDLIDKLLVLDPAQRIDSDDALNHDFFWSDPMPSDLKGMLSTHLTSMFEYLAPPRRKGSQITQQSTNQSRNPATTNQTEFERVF
T1 sequence (O60563 whole entry partner): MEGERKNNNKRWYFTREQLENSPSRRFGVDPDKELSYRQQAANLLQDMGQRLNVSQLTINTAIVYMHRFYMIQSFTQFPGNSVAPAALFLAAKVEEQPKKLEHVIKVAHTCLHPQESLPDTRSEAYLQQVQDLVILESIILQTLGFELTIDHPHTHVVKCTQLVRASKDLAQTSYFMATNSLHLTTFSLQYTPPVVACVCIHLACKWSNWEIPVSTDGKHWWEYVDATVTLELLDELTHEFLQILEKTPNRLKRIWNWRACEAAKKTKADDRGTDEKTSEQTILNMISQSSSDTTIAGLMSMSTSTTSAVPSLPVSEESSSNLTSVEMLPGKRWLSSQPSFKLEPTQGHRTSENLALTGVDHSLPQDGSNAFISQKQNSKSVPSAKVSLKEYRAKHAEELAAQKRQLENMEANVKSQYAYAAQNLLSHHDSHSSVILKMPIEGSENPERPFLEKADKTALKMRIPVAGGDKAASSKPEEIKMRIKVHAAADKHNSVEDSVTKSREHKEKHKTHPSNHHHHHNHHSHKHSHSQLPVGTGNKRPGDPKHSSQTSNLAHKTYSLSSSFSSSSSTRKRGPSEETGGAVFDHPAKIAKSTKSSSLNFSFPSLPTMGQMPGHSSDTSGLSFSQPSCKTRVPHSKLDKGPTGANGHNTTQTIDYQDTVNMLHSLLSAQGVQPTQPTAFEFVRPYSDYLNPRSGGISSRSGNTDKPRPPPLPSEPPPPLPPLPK

Structure (SMILES) | CDK9 inhibitory effect
CCOc1ccccc1-c1cc(Nc2cccc(CNS(C)(=O)=O)c2)ncn1 [Example 5, N-{3-[6-(2-Ethoxy-phenyl)-pyrimidin-4-ylamino]-benzyl}-methanesulfonamide] | nanomolar or low nanomolar range
CS(=O)(=O)NCc1ccc(Nc2cc(-c3ccccc3OCc3ccccc3)ncn2)cc1 [Example 35, N-{4-[6-(2-Benzyloxy-phenyl)-pyrimidin-4-ylamino]-benzyl}-methanesulfonamide] | nanomolar or low nanomolar range
COc1ccccc1-c1cc(Nc2cccc(CNS(C)(=O)=O)c2)ncn1 [Example 6, N-{3-[6-(2-Methoxy-phenyl)-pyrimidin-4-ylamino]-benzyl}-methanesulfonamide] | nanomolar or low nanomolar range
COc1cc(F)ccc1-c1cc(Nc2cccc(CNS(C)(=O)=O)c2)ncn1 [Example 7, N-{3-[6-(4-Fluoro-2-methoxy-phenyl)-pyrimidin-4-ylamino]-benzyl}-methanesulfonamide] | nanomolar or low nanomolar range

Second part, the compound after the results:

CDK9 inhibitory effect | Structure (SMILES)
nanomolar or low nanomolar range | CCCS(=O)(=O)NCc1cccc(Nc2cc(-c3ccccc3OC)ncn2)c1 [Example 71, Propane-1-sulfonic acid 3-[6-(2-methoxy-phenyl)-pyrimidin-4-ylamino]-benzylamide]
nanomolar or low nanomolar range | COc1cc(F)ccc1-c1cc(Nc2cccc(Cn3cnc4ccccc43)c2)ncn1 [Example 65, (3-Benzoimidazol-1-ylmethyl-phenyl)-[6-(4-fluoro-2-methoxy-phenyl)-pyrimidin-4-yl]-amine]

same assay, conditions: 5 nM CDK9/CyclinT, 400 nM TAMRA-Rbtide, 12 μM ATP, 1 hour at room temperature; read-out: CDK9 inhibitory range

Structure (SMILES) | IC50 [nM]
COc1cc(Cl)ccc1-c1cc(Nc2cccc(CNS(C)(=O)=O)c2)ncn1 [Example 25, N-{3-[6-(4-Chloro-2-methoxy-phenyl)-pyrimidin-4-ylamino]-benzyl}-methanesulfonamide] | < 1000
CS(=O)(=O)NCc1ccc(Nc2cc(Cl)ncn2)cc1 [Example 33, N-[4-(6-Chloro-pyrimidin-4-ylamino)-benzyl]-methanesulfonamide] | > 10000
CSc1ccccc1-c1cc(Nc2ccc(CNS(C)(=O)=O)cc2)ncn1 [Example 41, N-{4-[6-(2-Methylsulfanyl-phenyl)-pyrimidin-4-ylamino]-benzyl}-methanesulfonamide] | < 1000
CCOc1ccccc1-c1cc(Nc2cccc(CNS(C)(=O)=O)c2)ncn1 [Example 5, N-{3-[6-(2-Ethoxy-phenyl)-pyrimidin-4-ylamino]-benzyl}-methanesulfonamide] | < 100
CS(=O)(=O)NCc1cccc(Nc2cc(Cl)ncn2)c1 [Example 1, N-[3-(6-Chloro-pyrimidin-4-ylamino)-benzyl]-methanesulfonamide] | > 10000
CS(=O)(=O)NCc1ccc(Nc2cc(-c3ccccc3OCc3ccccc3)ncn2)cc1 [Example 35, N-{4-[6-(2-Benzyloxy-phenyl)-pyrimidin-4-ylamino]-benzyl}-methanesulfonamide] | < 100
CS(=O)(=O)NCc1ccc(Nc2cc(-c3ccccc3Oc3ccccc3)ncn2)cc1 [Example 40, N-{4-[6-(2-Phenoxy-phenyl)-pyrimidin-4-ylamino]-benzyl}-methanesulfonamide] | < 1000
COc1ccccc1-c1cc(Nc2ccc(CNS(C)(=O)=O)cc2)ncn1 [Example 34, N-{4-[6-(2-Methoxy-phenyl)-pyrimidin-4-ylamino]-benzyl}-methanesulfonamide] | < 1000
COc1ccccc1-c1cc(Nc2cccc(CNS(C)(=O)=O)c2)ncn1 [Example 6, N-{3-[6-(2-Methoxy-phenyl)-pyrimidin-4-ylamino]-benzyl}-methanesulfonamide] | < 100
CS(=O)(=O)NCc1cccc(Nc2cc(-c3ccc(F)cc3F)ncn2)c1 [Example 17, N-{3-[6-(2,4-Difluoro-phenyl)-pyrimidin-4-ylamino]-benzyl}-methanesulfonamide] | < 10000
CC(C)COc1ccccc1-c1cc(Nc2ccc(CNS(C)(=O)=O)cc2)ncn1 [Example 51, N-{4-[6-(2-Isobutoxy-phenyl)-pyrimidin-4-ylamino]-benzyl}-methanesulfonamide] | < 1000
COc1ccc(C)cc1-c1cc(Nc2cccc(CNS(C)(=O)=O)c2)ncn1 [Example 26, N-{3-[6-(2-Methoxy-5-methyl-phenyl)-pyrimidin-4-ylamino]-benzyl}-methanesulfonamide] | < 10000
COc1ccc(F)cc1-c1cc(Nc2cccc(CNS(C)(=O)=O)c2)ncn1 [Example 9, N-{3-[6-(5-Fluoro-2-methoxy-phenyl)-pyrimidin-4-ylamino]-benzyl}-methanesulfonamide] | < 1000
CS(=O)(=O)NCc1cccc(Nc2cc(-c3cccc(N)c3)ncn2)c1 [Example 22, N-{3-[6-(3-Amino-phenyl)-pyrimidin-4-ylamino]-benzyl}-methanesulfonamide] | < 1000
CS(=O)(=O)NCc1cccc(Nc2cc(-c3ccccc3)ncn2)c1 [Example 21, N-[3-(6-Phenyl-pyrimidin-4-ylamino)-benzyl]-methanesulfonamide] | < 10000
CS(=O)(=O)NCc1cccc(Nc2cc(-c3ccccc3C(F)(F)F)ncn2)c1 [Example 18, N-{3-[6-(2-Trifluoromethyl-phenyl)-pyrimidin-4-ylamino]-benzyl}-methanesulfonamide] | > 10000
CS(=O)(=O)NCc1cccc(Nc2cc(-c3ccccc3OCc3ccccc3)ncn2)c1 [Example 2, N-{3-[6-(2-Benzyloxy-phenyl)-pyrimidin-4-ylamino]-benzyl}-methanesulfonamide] | < 1000
COc1cc(F)ccc1-c1cc(Nc2cccc(CNS(C)(=O)=O)c2)ncn1 [Example 7, N-{3-[6-(4-Fluoro-2-methoxy-phenyl)-pyrimidin-4-ylamino]-benzyl}-methanesulfonamide] | < 100

More lines, now with the values ahead:

IC50 [nM] | Structure (SMILES)
> 10000 | CS(=O)(=O)NCc1ccc(Nc2cc(-c3cn[nH]c3)ncn2)cc1 [Example 58, N-{4-[6-(1H-Pyrazol-4-yl)-pyrimidin-4-ylamino]-benzyl}-methanesulfonamide]
< 1000 | CS(=O)(=O)NCc1ccc(Nc2cc(-c3ccccc3OCc3cccc(F)c3)ncn2)cc1 [Example 49, N-(4-{6-[2-(3-Fluoro-benzyloxy)-phenyl]-pyrimidin-4-ylamino}-benzyl)-methanesulfonamide]
< 10000 | COc1ccccc1-c1cc(Nc2cccc(CNC(=O)Nc3ccc(F)cc3)c2)ncn1 [Example 85, 1-(4-Fluoro-phenyl)-3-{3-[6-(2-methoxy-phenyl)-pyrimidin-4-ylamino]-benzyl}-urea]
< 1000 | COc1ccc(F)cc1-c1cc(Nc2cccc(CNc3nc4ccccc4[nH]3)c2)ncn1 [Example 62, (1H-Benzoimidazol-2-yl)-{3-[6-(5-fluoro-2-methoxy-phenyl)-pyrimidin-4-ylamino]-benzyl}-amine]
> 10000 | Clc1cc(Nc2cccc(Cn3c(CN4CCOCC4)nc4ccccc43)c2)ncn1 [Example 92, (6-Chloro-pyrimidin-4-yl)-[3-(2-morpholin-4-ylmethyl-benzoimidazol-1-ylmethyl)-phenyl]amine]
< 100 | CC(C)Oc1ccccc1-c1cc(Nc2cccc(Cn3cnc4ccccc43)c2)ncn1 [Example 80, (3-Benzoimidazol-1-ylmethyl-phenyl)-[6-(2-isopropoxy-phenyl)-pyrimidin-4-yl]-amine]
< 100 | CCCS(=O)(=O)NCc1cccc(Nc2cc(-c3ccccc3OC)ncn2)c1 [Example 71, Propane-1-sulfonic acid 3-[6-(2-methoxy-phenyl)-pyrimidin-4-ylamino]-benzylamide]
< 1000 | COc1ccccc1-c1cc(Nc2cccc(CNS(=O)(=O)c3c(Cl)cccc3Cl)c2)ncn1 [Example 70, 2,6-Dichloro-N-{3-[6-(2-methoxy-phenyl)-pyrimidin-4-ylamino]-benzyl}-benzenesulfonamide]
< 1000 | COc1ccccc1-c1cc(Nc2cccc(CNS(=O)(=O)c3cccs3)c2)ncn1 [Example 73, Thiophene-2-sulfonic acid 3-[6-(2-methoxy-phenyl)-pyrimidin-4-ylamino]-benzylamide]
< 1000 | Oc1ccc(-c2cc(Nc3cccc(Cn4cnc5ccccc54)c3)ncn2)cc1 [Example 82, 4-[6-(3-Benzoimidazol-1-ylmethyl-phenylamino)-pyrimidin-4-yl]-phenol]
< 1000 | CS(=O)(=O)NCc1ccc(Nc2cc(-c3ccc(O)cc3)ncn2)cc1 [Example 76, N-{4-[6-(4-Hydroxy-phenyl)-pyrimidin-4-ylamino]-benzyl}-methanesulfonamide]
< 1000 | COc1ccccc1-c1cc(Nc2cccc(CNc3nc4ccccc4[nH]3)c2)ncn1 [Example 60, (1H-Benzoimidazol-2-yl)-{3-[6-(2-methoxy-phenyl)-pyrimidin-4-ylamino]-benzyl}-amine]
< 10000 | Clc1cc(Nc2cccc(Cn3cnc4ccccc43)c2)ncn1 [Example 63, (3-Benzoimidazol-1-ylmethyl-phenyl)-(6-chloro-pyrimidin-4-yl)-amine]
< 100 | COc1cc(F)ccc1-c1cc(Nc2cccc(Cn3cnc4ccccc43)c2)ncn1 [Example 65, (3-Benzoimidazol-1-ylmethyl-phenyl)-[6-(4-fluoro-2-methoxy-phenyl)-pyrimidin-4-yl]-amine]
< 1000 | COc1ccc(COc2ccccc2-c2cc(Nc3ccc(CNS(C)(=O)=O)cc3)ncn2)cc1 [Example 50, N-(4-{6-[2-(4-Methoxy-benzyloxy)-phenyl]-pyrimidin-4-ylamino}-benzyl)-methanesulfonamide]
< 10000 | CS(=O)(=O)NCc1ccc(Nc2cc(-c3cccc(N)c3)ncn2)cc1 [Example 46, N-{4-[6-(3-Amino-phenyl)-pyrimidin-4-ylamino]-benzyl}-methanesulfonamide hydrochloride]
< 100 | CC(C)Oc1cc(F)ccc1-c1cc(Nc2cccc(CNc3nc4ccccc4[nH]3)c2)ncn1 [Example 77, (1H-Benzoimidazol-2-yl)-{3-[6-(4-fluoro-2-isopropoxy-phenyl)-pyrimidin-4-ylamino]-benzyl}-amine]
< 100 | CS(=O)(=O)NCc1cccc(Nc2cc(-c3ccc(O)cc3)ncn2)c1 [Example 75, N-{3-[6-(4-Hydroxy-phenyl)-pyrimidin-4-ylamino]-benzyl}-methanesulfonamide]
